In PubChem BioAssay (NCI):
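Step 1: Grow cells in 96-well plates. Step 2: Expose to compound for 48 hours at 5 concentrations. Step 3: Interpolate endpoints linearly; if unreached, use highest concentration. GI50 = concentration required for 50% inhibition of growth. TGI: concentration producing complete growth inhibition.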

Key:
Test in all cases: NCI-60 cell line screen, 48 h
CAKI-1 renal = system: CAKI-1 renal
COLO 205 colon = system: COLO 205 colon
DU-145 prostate = system: DU-145 prostate
MDA-MB-435 = system: MDA-MB-435
MOLT-4 leukemia = system: MOLT-4 leukemia
NCI-H460 lung = system: NCI-H460 lung
NCI/ADR-RES ovarian = system: NCI/ADR-RES ovarian
OVCAR-5 ovarian = system: OVCAR-5 ovarian
SF-539 CNS = system: SF-539 CNS
U251 CNS = system: U251 CNS

Structure (SMILES) | TGI (CAKI-1 renal) [µM] | TGI (COLO 205 colon) [µM] | TGI (DU-145 prostate) [µM] | TGI (MDA-MB-435) [µM] | TGI (MOLT-4 leukemia) [µM] | TGI (NCI-H460 lung) [µM] | TGI (NCI/ADR-RES ovarian) [µM] | TGI (OVCAR-5 ovarian) [µM] | TGI (SF-539 CNS) [µM] | TGI (U251 CNS) [µM] | GI50 (DU-145 prostate) [µM] | GI50 (MDA-MB-435) [µM] | GI50 (SF-539 CNS) [µM] | GI50 (CAKI-1 renal) [µM] | GI50 (COLO 205 colon) [µM] | GI50 (MOLT-4 leukemia) [µM] | GI50 (NCI-H460 lung) [µM] | GI50 (NCI/ADR-RES ovarian) [µM] | GI50 (OVCAR-5 ovarian) [µM] | GI50 (U251 CNS) [µM]
S=c1cc(-c2ccc3c(c2)OCO3)s[nH]1 | > 100 | > 100 | > 100 | > 100 | > 100 | > 100 | > 100 | > 100 | > 100 | > 100 | – | – | – | – | – | – | – | – | – | –
CSc1n[nH]c(N)c1C(=O)Nc1ccccc1 | > 100 | > 100 | > 100 | > 100 | > 100 | > 100 | > 100 | > 100 | > 100 | > 100 | – | – | – | – | – | – | – | – | – | –
C[n+]1c(-c2ccc(/C=C/C=N\NC(=O)c3ccc(C(=O)N/N=C\C=C\c4ccc(-c5cn6ccccc6[n+]5C)cc4)cc3)cc2)cn2ccccc21 | > 60.4 | > 100 | 97.6 | > 100 | > 100 | > 100 | > 100 | > 100 | > 100 | > 100 | – | – | – | – | – | – | – | – | – | –
CCOP(=O)(/C=C\n1ccc(N)nc1=O)OCC | > 100 | > 100 | > 100 | > 100 | > 100 | > 100 | > 100 | > 100 | > 100 | > 100 | – | – | – | – | – | – | – | – | – | –
COc1cc(/C=C/C=C2\CC/C(=C\C=C\c3ccc(O)c(OC)c3)C2=O)ccc1O | > 100 | > 100 | > 100 | > 100 | 22.2 | > 100 | > 100 | > 100 | > 100 | > 100 | – | – | – | – | – | – | – | – | – | –
O=C1CSC2=NC3=C(COC/C3=C\c3ccc(Br)cc3)C(c3ccc(Br)cc3)N12 (stereo not drawn) | > 100 | > 100 | > 100 | > 100 | 64.2 | > 100 | > 100 | > 100 | > 100 | > 100 | – | – | – | – | – | – | – | – | – | –
Cc1ccc(/C=C2\Cc3c(C)cc(C)cc3C2=O)c(C(=O)O)c1 | > 100 | 98.2 | > 100 | 88.1 | > 100 | > 100 | > 100 | > 100 | 46.2 | > 100 | – | – | – | – | – | – | – | – | – | –
CCOC(=O)C#Cc1ccccc1 | 33.4 | 25.9 | > 100 | 45.6 | 12.8 | > 100 | > 100 | 19.3 | 19.3 | 25.9 | – | – | – | – | – | – | – | – | – | –
CC(=O)c1ccc2c(c1)CC1(C2)Cc2ccccc2C1=O (stereo not drawn) | > 100 | > 100 | > 100 | > 100 | > 100 | > 100 | 75.6 | > 100 | > 100 | > 100 | – | – | – | – | – | – | – | – | – | –
COC(=O)c1cc(C#N)[nH]c1-c1cc(Br)cs1 | 62.7 | 35.6 | 43.1 | 31.5 | 50.8 | 54.5 | 39.3 | 55.7 | 33.3 | 32.1 | – | – | – | – | – | – | – | – | – | –
Oc1[nH]c2ccccc2c1N=NC(=S)Nc1ccc(Cl)cc1 | 64 | > 100 | > 100 | > 100 | > 100 | > 100 | 38.8 | > 100 | 82.3 | > 100 | – | – | – | – | – | – | – | – | – | –
C[C@]12CC[C@@H]3c4cc(I)c(O)cc4CC[C@H]3[C@@H]1CC[C@@H]2O | 27 | 36.2 | 23.8 | 8.02 | > 54.8 | 16 | > 78.2 | 25.7 | 7.76 | 16.8 | 6.9 | 2.11 | 3.02 | – | – | – | – | – | – | –
O=c1[nH]nc(Cc2ccccc2)n1/N=C/c1ccncc1 | > 100 | > 100 | > 100 | > 100 | > 100 | > 100 | > 100 | > 100 | > 100 | > 100 | – | – | – | – | – | – | – | – | – | –
COc1ccc(N(C(=O)Nc2ccc(Cl)c(Cl)c2)C2c3cccn3C(=O)N2c2ccc(Cl)c(Cl)c2)cc1 (stereo not drawn) | > 100 | > 100 | > 100 | > 100 | > 100 | > 100 | > 100 | > 100 | > 100 | > 100 | – | – | – | – | – | – | – | – | – | –
CC(C(=O)O)C(C)(O)C(=O)O (stereo not drawn) | > 100 | > 100 | > 100 | > 100 | > 100 | > 100 | > 100 | > 100 | > 100 | > 100 | – | – | – | – | – | – | – | – | – | –
COc1ccc(CN2C3CC2CN(c2ccc(-c4cc(OCC(C)(C)O)cn5ncc(C#N)c45)cn2)C3)cn1 | > 100 | > 100 | > 100 | > 100 | > 100 | > 100 | > 100 | > 100 | 8.61 | > 100 | 26.2 | > 100 | 2.61 | 4.78 | 2.99 | 52.9 | 15.9 | 28.7 | > 100 | 4.55
COc1nc(C#CC(C)(C)C)nc(OC)n1 | 51.9 | > 100 | 68.3 | 84.5 | > 100 | > 100 | 46.1 | 42.5 | 83.1 | > 100 | – | – | – | – | – | – | – | – | – | –
CC(C)OC(=O)OCSc1ccccc1N=Cc1cccc([N+](=O)[O-])c1 | > 10 | > 10 | > 10 | > 10 | > 10 | > 10 | > 10 | > 10 | > 10 | > 10 | – | – | – | – | – | – | – | – | – | –
COc1cc2ccc1OCc1cccc(n1)COc1ccc(cc1OC)C=Nc1ccc(cc1)N=C2 | > 100 | > 100 | > 100 | > 100 | > 100 | > 100 | > 100 | > 100 | > 100 | > 100 | – | – | – | – | – | – | – | – | – | –
COc1cc2c(c(O)c1OC)C(=O)C(Cc1ccc(O)cc1)CO2 (stereo not drawn) | 75.9 | > 100 | > 100 | 7.24 | > 100 | > 100 | 39.2 | > 100 | 41.7 | > 100 | – | – | – | – | – | – | – | – | – | –
